Source: patent US5464820A, “Specific inhibitors of tissue kallikrein” (priority 1993, dated 1995)
pKi: −log10 of the molar value. “And” between values parts separate entries of the source, which are not always exact repeats. Equal entries are not always repeated. Where two headings read alike, the source gives them in different places. Non-standard residues stand in square brackets, D forms with d. Residues, ends and D or L forms follow the SMILES beside them. No end group written: not given here. 1Nal = N[C@@H](Cc1cccc2ccccc12)C(=O)O; 2Nal = N[C@@H](Cc1ccc2ccccc2c1)C(=O)O; Phe(2-F) = N[C@@H](Cc1ccccc1F)C(=O)O; hArg = N=C(N)NCCCC[C@H](N)C(=O)O; hPhe = N[C@@H](CCc1ccccc1)C(=O)O; 2Thi = N[C@@H](Cc1cccs1)C(=O)O; Cha = N[C@@H](CC1CCCCC1)C(=O)O; Cit = NC(=O)NCCC[C@H](N)C(=O)O; Phg = N[C@H](C(=O)O)c1ccccc1; hSer = N[C@@H](CCO)C(=O)O; ChCar = not defined here; Orn = NCCC[C@H](N)C(=O)O; dia = not defined here

What was measured:
Type in all cases: biochemical
[1] = biological target: porcine pancreatic kallikrein (PPK) (Sus scrofa, UniProt P00752); test: Inhibition of porcine pancreatic kallikrein, cleavage of chromogenic substrate S-2266 (KI); conditions: for Ki: Table 7, in mM
[2] = biological target: human plasma kallikrein (HPK) (Homo sapiens, UniProt P03952); test: Inhibition of human plasma kallikrein (KI); conditions: for Ki: Table 7, in mM
Source text: (§1) Assay methods were based on the cleavage of chromogenic substrate S-2266 (D-Val-Leu-Arg-pNA) (Kabi; Charlotte, N.C.) by porcine pancreatic kallikrein (Sigma Chemical Company; St. Louis, Mo.) to yield an increase in absorbance at 405 nm. By changing the substrate and enzyme, the general method has been extended to measure the inhibition of human tissue kallikrein (HTK or human urinary kallikrein HUK), human plasma kallikrein (HPK), plasmin, and urokinase (UK). In all assays, the robot dilutes the inhibitor into a series of wells and adds substrate and buffer. Chromogenic reactions are started by the addition of enzyme. Changes in the absorbance at 405 nm in an array of wells were recorded. All manipulations were performed by the instrument from reservoirs containing substrate, inhibitor, diluent (water), buffer, or enzyme.

[3] = biological target: T1, human urinary kallikrein (HUK) (Homo sapiens, UniProt P06870); test: Inhibition of human urinary (tissue) kallikrein (KI); conditions: read-out: KI HUK
T1 construct: Human urinary kallikrein (HUK) was purified from human urine; from tissue
Method: Human urinary kallikrein (HUK) was purified from human urine. Briefly, urine was subjected to ultrafiltration to concentrate the protein components which were applied to approtinin-CH-Sepharose affinity columns. Active fractions from these columns were next applied to Sephadex G-100 gel filtration and collected as fractions. The pH of each fraction was determined immediately upon elution, and the fraction was neutralized by addition of 2.0 ml of 2M Tris-HCL buffer, pH 8.0. Porcine pancreatic 24-kallikrein (PPK), at 50 units/mg protein; 1.0 units hydrolyses 1.0 μM BAEE (benzoyl -L-arginine ethyl ester) to N-a-benzoyl-L-arginine/minute at pH 8.7 at 25° C., was purchased from Sigma Chemical Company (St. Louis, Mo.). […] All other enzymes were purchased from Sigma Chemical Company (St. Louis, Mo.).
Dixon plots were used for data reduction and for calculation of […].
as §1

[4] = biological target: T2, urokinase (UK) (Homo sapiens, UniProt P00749); test: Inhibition of urokinase (KI); conditions: Table 7; read-out: K1 UK
T2 construct: purchased Sigma Chemical Company (St. Louis, Mo.)
Source text: as §1

[5] = Table 5, Pro-Phe-Arg-X-Val-Gln, read-out: KI PPK
[6] = Table 5, Pro-Phe-Arg-X-Val-Gln, read-out: KI HPK
[7] = Table 4, Pro-X-Arg-Ser-Val-Gln, read-out: KI PPK
[8] = Table 4, Pro-X-Arg-Ser-Val-Gln, read-out: KI HPK

porcine pancreatic kallikrein (PPK), sequence (P00752 8-87 limits assumed): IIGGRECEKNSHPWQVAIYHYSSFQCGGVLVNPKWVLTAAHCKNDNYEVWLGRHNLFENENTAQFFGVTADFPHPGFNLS
porcine pancreatic kallikrein (PPK), sequence (P00752 95-246 limits assumed): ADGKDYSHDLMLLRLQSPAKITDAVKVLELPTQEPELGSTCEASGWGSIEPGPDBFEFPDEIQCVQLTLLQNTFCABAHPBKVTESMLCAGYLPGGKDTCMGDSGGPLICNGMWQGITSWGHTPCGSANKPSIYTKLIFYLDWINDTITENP
human plasma kallikrein (HPK), sequence (P03952 20-638): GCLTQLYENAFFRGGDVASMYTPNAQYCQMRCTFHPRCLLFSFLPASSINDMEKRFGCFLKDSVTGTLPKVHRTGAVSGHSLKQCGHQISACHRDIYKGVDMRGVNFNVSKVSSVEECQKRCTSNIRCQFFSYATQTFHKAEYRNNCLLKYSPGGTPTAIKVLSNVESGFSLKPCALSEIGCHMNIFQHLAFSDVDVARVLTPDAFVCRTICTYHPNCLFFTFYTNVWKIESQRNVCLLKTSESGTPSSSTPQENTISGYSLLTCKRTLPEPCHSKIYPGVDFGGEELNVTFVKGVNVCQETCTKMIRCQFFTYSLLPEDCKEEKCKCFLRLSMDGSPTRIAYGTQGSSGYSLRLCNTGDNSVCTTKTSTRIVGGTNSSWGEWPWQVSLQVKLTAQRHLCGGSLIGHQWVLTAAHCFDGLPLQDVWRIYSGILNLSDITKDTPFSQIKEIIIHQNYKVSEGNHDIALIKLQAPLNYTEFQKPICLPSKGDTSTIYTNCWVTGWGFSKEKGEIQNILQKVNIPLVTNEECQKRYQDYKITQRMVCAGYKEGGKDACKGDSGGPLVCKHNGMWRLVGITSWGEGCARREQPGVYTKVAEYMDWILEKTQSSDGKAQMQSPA
T1 sequence (P06870 25-262): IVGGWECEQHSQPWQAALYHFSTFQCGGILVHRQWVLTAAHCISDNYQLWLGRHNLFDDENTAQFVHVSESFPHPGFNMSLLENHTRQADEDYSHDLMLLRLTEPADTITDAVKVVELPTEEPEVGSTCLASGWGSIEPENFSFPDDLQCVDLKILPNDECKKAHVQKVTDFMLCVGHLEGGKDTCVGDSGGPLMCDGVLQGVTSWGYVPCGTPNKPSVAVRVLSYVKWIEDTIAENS

Compound: CC(C)[C@H](NC(=O)[C@H](C)NC(=O)[C@H](CCCNC(=N)N)NC(=O)[C@H](Cc1ccccc1)NC(=O)[C@@H]1CCCN1)C(=O)N[C@@H](CCC(N)=O)C(N)=O [Ala] (H-PFRAVQ-NH2)
- pKi [1, 5]: 3.88 and 3.79
- pKi [2, 6]: 3.27

Compound: CC(C)[C@H](NC(=O)[C@H](CC(N)=O)NC(=O)[C@H](CCCNC(=N)N)NC(=O)[C@H](Cc1ccccc1)NC(=O)[C@@H]1CCCN1)C(=O)N[C@@H](CCC(N)=O)C(N)=O [Asn] (H-PFRNVQ-NH2)
- pKi [1, 5]: 4.24 and 4.00 and 4.17
- pKi ([1]; Table 5, values in [] : Dithiothreitol, read-out: KI PPK): 4.48
- pKi [2, 6]: 3.61
- pKi ([3]; Table 5, Pro-Phe-Arg-X-Val-Gln): 4.00

Compound: CC(C)[C@H](NC(=O)[C@H](CCO)NC(=O)[C@H](CCCNC(=N)N)NC(=O)[C@H](Cc1ccccc1)NC(=O)[C@@H]1CCCN1)C(=O)N[C@@H](CCC(N)=O)C(N)=O [Hse] (H-PFR[hSer]VQ-NH2)
- pKi [1, 5]: 3.79
- pKi [2, 6]: 3.44

Compound: CC(C)[C@H](NC(=O)[C@H](CO)NC(=O)[C@H](CCCNC(=N)N)NC(=O)[C@H](Cc1ccccc1F)NC(=O)[C@@H]1CCCN1)C(=O)N[C@@H](CCC(N)=O)C(N)=O [KCH-1] (H-P[Phe(2-F)]RSVQ-NH2)
- pKi [1, 7]: 3.91
- pKi [2, 8]: 3.33
- pKi ([3]; Table 4, Pro-X-Arg-Ser-Val-Gln): 3.82

Compound: CC(C)[C@H](NC(=O)[C@H](CO)NC(=O)[C@H](CCCNC(=N)N)NC(=O)[C@H](CCc1ccccc1)NC(=O)[C@@H]1CCCN1)C(=O)N[C@@H](CCC(N)=O)C(N)=O [KCH-2] (H-P[hPhe]RSVQ-NH2)
- pKi [1, 7]: 3.40
- pKi [2, 8]: 3.26

Compound: CC(C)[C@H](NC(=O)[C@H](CO)NC(=O)[C@H](CCCNC(=N)N)NC(=O)[C@H](Cc1cccs1)NC(=O)[C@@H]1CCCN1)C(=O)N[C@@H](CCC(N)=O)C(N)=O [KCH-4] (H-P[2Thi]RSVQ-NH2)
- pKi [1, 7]: 3.96
- pKi [2, 8]: 3.30
- pKi ([3]; Table 4, Pro-X-Arg-Ser-Val-Gln): 3.60

Compound: CC(C)[C@H](NC(=O)[C@H](CO)NC(=O)[C@H](CCCNC(=N)N)NC(=O)[C@@H](NC(=O)[C@@H]1CCCN1)c1ccccc1)C(=O)N[C@@H](CCC(N)=O)C(N)=O [KCH-5] (H-P[Phg]RSVQ-NH2)
- pKi [1, 7]: 2.88
- KI HPK ([2]; Table 4, Pro-X-Arg-Ser-Val-Gln): ni

Compound: CC(C)[C@H](NC(=O)[C@H](CO)NC(=O)[C@H](CCCNC(=N)N)NC(=O)[C@H](Cc1ccc2ccccc2c1)NC(=O)[C@@H]1CCCN1)C(=O)N[C@@H](CCC(N)=O)C(N)=O [KCH-6] (H-P[2Nal]RSVQ-NH2)
- pKi [1, 7]: 3.88
- pKi [2, 8]: 3.18
- pKi ([3]; Table 4, Pro-X-Arg-Ser-Val-Gln): 3.94

Compound: CC(C)[C@H](NC(=O)[C@H](CO)NC(=O)[C@H](CCCNC(=N)N)NC(=O)[C@H](Cc1cccc2ccccc12)NC(=O)[C@@H]1CCCN1)C(=O)N[C@@H](CCC(N)=O)C(N)=O [KCH-7] (H-P[1Nal]RSVQ-NH2)
- pKi [1, 7]: 3.89
- pKi [2, 8]: 3.29
- pKi ([3]; Table 4, Pro-X-Arg-Ser-Val-Gln): 4.39

Compound: CC(C)[C@H](NC(=O)[C@H](CO)NC(=O)[C@H](CCCNC(=N)N)NC(=O)[C@H](CC1CCCCC1)NC(=O)[C@@H]1CCCN1)C(=O)N[C@@H](CCC(N)=O)C(N)=O [KCH-10] (H-P[Cha]RSVQ-NH2)
- pKi [1, 7]: 4.07
- pKi [2, 8]: 3.09
- pKi ([3]; Table 4, Pro-X-Arg-Ser-Val-Gln): 4.04

Compound: CC(C)[C@H](NC(=O)[C@H](CO)NC(=O)[C@H](CCCNC(=N)N)NC(=O)[C@H](Cc1c[nH]c2ccccc12)NC(=O)[C@@H]1CCCN1)C(=O)N[C@@H](CCC(N)=O)C(N)=O [KCH-11] (H-PWRSVQ-NH2)
- pKi [1, 7]: 3.64
- pKi [2, 8]: 3.35

Compound: CC(C)[C@H](NC(=O)[C@H](CO)NC(=O)[C@H](CCCCN)NC(=O)[C@H](Cc1ccccc1)NC(=O)[C@@H]1CCCN1)C(=O)N[C@@H](CCC(N)=O)C(N)=O [KIDZ-2, Pro-Phe-Lys-Ser-Val-Gln] (H-PFKSVQ-NH2)
- pKi ([1]; Table 7, read-out: K1 PPK): 3.53
- pKi ([2]; Table 7, read-out: K1 HPK): 2.60
- pKi [4]: < 1.70

Compound: CC(C)[C@H](NC(=O)[C@H](CO)NC(=O)[C@H](CCCN)NC(=O)[C@H](Cc1ccccc1)NC(=O)[C@@H]1CCCN1)C(=O)N[C@@H](CCC(N)=O)C(N)=O [KIDZ-3, Pro-Phe-Orn-Ser-Val-Gln] (H-PF[Orn]SVQ-NH2)
- Ki ([1]; read-out: K1 PPK): > 5000 µM
- Ki ([2]; read-out: K1 HPK): > 5 mM
- pKi [4]: < 1.70

Compound: CC(C)[C@H](NC(=O)[C@H](CO)NC(=O)[C@H](CCCNC(N)=O)NC(=O)[C@H](Cc1ccccc1)NC(=O)[C@@H]1CCCN1)C(=O)N[C@@H](CCC(N)=O)C(N)=O [KIDZ-7, Pro-Phe-Cit-Ser-Val-Gln] (H-PF[Cit]SVQ-NH2)
- Ki ([1]; read-out: K1 PPK): > 3000 µM
- Ki ([2]; read-out: K1 HPK): > 5 mM

Compound: CC(C)[C@H](NC(=O)[C@H](CO)NC(=O)[C@H](Cc1c[nH]cn1)NC(=O)[C@H](Cc1ccccc1)NC(=O)[C@@H]1CCCN1)C(=O)N[C@@H](CCC(N)=O)C(N)=O [KIDZ-12, Pro-Phe-His-Ser-Val-Gln] (H-PFHSVQ-NH2)
- Ki ([1]; read-out: K1 PPK): > 1000 µM
- Ki ([2]; read-out: K1 HPK): > 20 mM
- pKi [4]: < 1.70

Compound: CSCC[C@H](NC(=O)[C@H](Cc1ccccc1)NC(=O)[C@@H]1CCCN1)C(=O)N[C@@H](CO)C(=O)N[C@H](C(=O)N[C@@H](CCC(N)=O)C(N)=O)C(C)C [KIDZ-13, Pro-Phe-Met-Ser-Val-Gln] (H-PFMSVQ-NH2)
- Ki ([1]; read-out: K1 PPK): > 4000 µM
- Ki ([2]; read-out: K1 HPK): > 20 mM
- pKi [4]: < 1.70

Compound: CC(C)[C@H](NC(=O)[C@H](CO)NC(=O)[C@H](CCCNC(=N)N)NC(=O)[C@@H](NC(=O)[C@@H]1CCCN1)[C@@H](C)O)C(=O)N[C@@H](CCC(N)=O)C(N)=O [KIDZ-14, Pro-Thr-Arg-Ser-Val-Gln] (H-PTRSVQ-NH2)
- pKi ([1]; Table 7, read-out: K1 PPK): 3.10 to 3.40
- pKi [4]: < 1.70

Compound: CC[C@H](C)[C@H](NC(=O)[C@H](CCCNC(=N)N)NC(=O)[C@H](C)NC(=O)[C@H](CCCCN)NC(=O)[C@H](CS)NC(=O)[C@@H]1CCCN1)C(N)=O [Pro-Cys-Lys-Ala-Arg-Ile] (H-PCKARI-NH2)
- pKi ([1]; Table 6, read-out: KI PPK): 8.52
- pKi ([2]; Table 6, HUK, read-out: KI HUK): 6.74

Compound: N=C(N)NCCC[C@H](NC(=O)[C@H](CO)NC(=O)[C@H](CO)NC(=O)[C@H](CCCNC(=N)N)NC(=O)[C@H](Cc1ccccc1)NC(=O)[C@@H]1CCCN1)C(N)=O [Pro-Phe-Arg-Ser-Ser-Arg] (H-PFRSSR-NH2)
- pKi ([1]; Table 6, read-out: KI PPK): 4.22
- pKi ([2]; Table 6, HUK, read-out: KI HUK): 3.31
- pKi ([3]; Table 6, first HUK column): 4.27

Compound: CC(C)[C@H](N)C(=O)N[C@@H](Cc1ccccc1)C(=O)N[C@@H](CCCNC(=N)N)C(=O)N[C@@H](CC(N)=O)C(=O)N[C@@H](CO)C(=O)N[C@@H](CCCNC(=N)N)C(N)=O [Val-Phe-Arg-Asn-Ser-Arg] (H-VFRNSR-NH2)
- pKi ([2]; Table 6, HUK, read-out: KI HUK): 3.71

Compound: CC(C)[C@H](N)C(=O)N[C@@H](Cc1ccccc1)C(=O)N[C@@H](CCCNC(=N)N)C(=O)N[C@@H](CC(N)=O)C(=O)N[C@H](CCCNC(=N)N)C(=O)N[C@@H](CCC(N)=O)C(N)=O [Val-Phe-Arg-Asn-dArg-Gln] (H-VFRN[dR]Q-NH2)
- pKi ([2]; Table 6, HUK, read-out: KI HUK): 2.80

Compound: CC(C)[C@H](N)C(=O)N[C@@H](Cc1ccccc1)C(=O)N[C@@H](CCCCNC(=N)N)C(=O)N[C@@H](CC(N)=O)C(=O)N[C@@H](CCCCNC(=N)N)C(=O)N[C@@H](CCC(N)=O)C(N)=O [Val-Phe-hArg-Asn-hArg-Gln] (H-VF[hArg]N[hArg]Q-NH2)
- pKi ([1]; Table 6, read-out: KI PPK): 5.54 and 5.00
- pKi ([2]; Table 6, HUK, read-out: KI HUK): 3.53

Compound: ChCar-Phe-Arg-dia-Val-Gln (ChCar-FR[dia]VQ; reading uncertain; also: printed as ChCar-Phe-Arg-dia-Val-Gln)
- pKi ([1]; Table 6, read-out: KI PPK): 3.94
- pKi ([2]; Table 6, HUK, read-out: KI HUK): 3.01

Compound: Pro-Map-Aph-Ser-Val-Gln [KIDZ-15]
- selectivity for tissue kallikrein over plasma kallikrein or urokinase ([1]; Table 7): selectivity for tissue kallikrein over plasma kallikrein or urokinase
- pKi ([1]; Table 7, read-out: K1 PPK): 3.96
- Ki ([2]; read-out: K1 HPK): > 20 mM
- pKi [4]: < 1.70
